Assay results taken from patent US6670395B1, “Prophylactic and therapeutic treatment of skin sensitization and irritation” (Bristol-Myers Squibb Company, priority 1996, dated 2003).

Key:
Balb/c female mice [1] = assay: Irritation induced by phorbol myristate: mouse ear thickness; details: in vivo
Description: (§1) Thirty (30) Balb/c female mice were obtained from Sprague Dawley Labs. A 1.0% (w/v) solution of PAME was prepared in a gel formulation (2.5% HPMC in 75% ethanol). A second solution containing a 2:1 volume ratio of acetone to ethanol was also prepared. A 20% (w/v) solution of captopril and the second solution (sufficient to elicit a strong irritant response), was also prepared. In addition a 1.0% HPMC solution was prepared as a placebo.
(§2) The Group I mice (10 mice) received the second solution and then 10 minutes later the HPMC solution. The positive control mice (10) designated as Group II received the captopril solution to the right ear followed by the HPMC solution. The experimental group of mice (10) (Group III) received the captopril solution to the right ear followed ten minutes later by the PAME solution.
(§3) The thickness of the ears was measured after 2 hours when maximum redness and swelling from the captopril solution were observed.
The procedures of Example 4 were repeated except that captopril was replaced with phorbol myristate (12-tetradecanyol-13-phorbol myristic acid) in an amount of 0.1% (w/v) in a 1% HPMC gel. Phenoxyacetic acid was also tested in this protocol.

Balb/c female mice [2] = assay: Irritation induced by captopril: mouse ear thickness; format: in vivo
Description: as §1, §2, §3

Balb/c mice [3] = assay: Counter sensitizer to oxazolone: ear swelling after challenge of sensitized mice; format: in vivo
Description: (§4) A 1.0% (w/v) solution of phenoxyacetic acid methyl ester (PAME, a compound of Formula I wherein R is methyl) was prepared in a gel formulation (2.5% HPMC in 75% ethanol). The same gel formulation served as a negative control. For sensitization, a 1% (w/v) solution of dinitrochlorobenzene (DNCB) was prepared in acetone.
(§5) Twenty-four (24) Balb/c mice had their back skin shaved. The mice were divided into three equal groups. The first group acted as a negative control and received on day 0 an application of acetone. The second and third groups each received 20 μL of 1% DNCB in acetone on the exposed back skin.
All three groups were challenged on the right ear with 20μL of 1% DNCB in acetone five (5) days after sensitization. Then, 10 minutes after challenge, the first and second groups received 100 μL of 1% HPMC in 75% ethanol. The third group received 1% of PAME in the HPMC gel.
(§6) Adverse reaction to the challenge with DNCB was determined by measuring the thickness of the mice ears before and after challenge to determine the amount of swelling, and then comparing the degree of swelling for mice treated in accordance with the invention (Group III) with Groups I and Groups II.
The procedures of Example 1 were repeated except that the mice were sensitized with a 1% (w/v) solution of oxazolone.

Balb/c female mice [4] = assay: Irritation induced by retinoic acid: mouse ear thickness; format: in vivo
Description: as §1, §2, §3
The procedures of […] were repeated except that captopril was replaced by retinoic acid in an amount of 1% (w/v) in a 1% HPMC gel.

Balb/c female mice [5] = assay: Irritation induced by dinitrochlorobenzene: mouse ear thickness; format: in vivo
Description: as §1, §2, §3
The procedures of Example 4 were repeated except that captopril was replaced with dinitrochlorobenzene (DNCB) in an amount of 2.0% (w/v) in a 1% HPMC gel.

Balb/c mice [6] = assay: Counter sensitizer to DNCB: ear swelling after DNCB challenge of sensitized mice; format: in vivo
Description: as §4, §5
[…] Then, 10 minutes after challenge, the first and second groups received 100 μL of 1% HPMC in 75% ethanol. The third group received 1% of PAME in the HPMC gel.
as §6

[7] = PAME (2 mg) in HPMC gel + oxazolone (100 μg), 24 hours

| SMILES | inflammation induced by contact with phorbol myristate (in words) (Balb/c female mice [1]) | EAR THICKNESS (Balb/c female mice [2]; 1.0% PAME gel 10 minutes after 20% captopril solution, 2 hours) [MM × 10^−3] | % SUPPRESSION (Balb/c female mice [2]; PAME + captopril, 2 hours, vs captopril only) | inflammation induced by contact with captopril (in words) (Balb/c female mice [2]; mouse, in vivo) | EAR SWELLING (Balb/c mice [3]; [7]) [MM × 10^−3] | EAR THICKNESS (Balb/c mice [3]; [7]) [MM × 10^−3] | % SUPPRESSION (Balb/c mice [3]; PAME (2 mg) in HPMC gel + oxazolone (100 μg), 24 hours, vs oxazolone only) [%] | adverse reactions induced by sensitization with oxazolone (in words) (Balb/c mice [3]; mouse, in vivo) | EAR THICKNESS (Balb/c female mice [4]; PAME + retinoic acid 1% (w/v), 2 hours) [MM × 10^−3] | % SUPPRESSION (Balb/c female mice [4]; PAME + retinoic acid, 2 hours, vs retinoic acid only) [%] | inflammation induced by retinoic acid (in words) (Balb/c female mice [4]; mouse, in vivo) | EAR THICKNESS (Balb/c female mice [5]; PAME + DNCB 2.0% (w/v), 2 hours) [MM × 10^−3] | % SUPPRESSION (Balb/c female mice [5]; PAME + DNCB, 2 hours, vs DNCB only) [%] | inflammation induced by contact with DNCB (in words) (Balb/c female mice [5]; mouse, in vivo) | EAR SWELLING (Balb/c mice [6]; PAME (1 mg) in HPMC gel + DNCB (100 μg), 24 hours) [MM × 10^−3] | EAR THICKNESS (Balb/c mice [6]; PAME (1 mg) in HPMC gel + DNCB (100 μg), 24 hours, right ear) [MM × 10^−3] | % SUPPRESSION (Balb/c mice [6]; PAME (1 mg) in HPMC gel + DNCB (100 μg), 24 hours, vs DNCB only) [%] | adverse reaction of the skin induced by sensitization with DNCB (in words) (Balb/c mice [6]; administered alone, prophylactically) |
| --- | --- | --- | --- | --- | --- | --- | --- | --- | --- | --- | --- | --- | --- | --- | --- | --- | --- | --- |
| O=C(O)COc1ccccc1 [PHENOXYACETIC ACID, Phenoxyacetic acid] | suppressed inflammation |  |  |  |  |  |  |  |  |  |  |  |  |  |  |  |  |  |
| COC(=O)COc1ccccc1 [PAME, phenoxyacetic acid methyl ester] | suppressed inflammation | 226 ± 5 | ≈93% | suppressed inflammation | 16 | 278 ± 15 | 84 | suppressed adverse reactions | 237 ± 11 | 100 | suppressed inflammation | 249 ± 8 | 100 | suppressed inflammation | 12 | 240 ± 6 | 62 | prevented an adverse reaction of the skin |
